Experimental data: patent US9918983B2, “Suicidal LSD1 inhibitors targeting SOX2-expressing cancer cells” (THE BOARD OF REGENTS OF THE NEVADA SYSTEM OF HIGHER …, priority 2013, dated 2018)

Experiments:
PA-1 cells [1] = assay: Cell growth/viability (MTT, microscopy); type: cell-based, human
Description: (§1) Lung, breast, ovarian, and other carcinoma cells were either obtained from American Type Culture Collection (ATCC) or from the DTP and DCTD Tumor Repository of National Cancer Institute (the NCI-60 cancer cell line panel), operated by Charles River Laboratory, Inc., as listed in Table 1. They were cultured according to instructions and treated with various concentrations of LSD1 inhibitors for 30-36 hours for mRNA analysis by quantitative real time RT-PCR or for 30-48 hours for protein analysis and the cell viability assays using Western blotting or microscopy and MTT assays as described previously (Wang, J., et al. (2011) Cancer Research 71, 7238-7249).
(§2) Alternatively, cell viability assays were conducted as previously described (Wang, J., et al. (2011) Cancer Research 71, 7238-7249). For the MTT assay, cells were seeded onto 96-well culture plates with a density of 2000-5000 cells/well, and incubated with CBB1003 or CBB1007 at various concentrations from 1 to 100 μM for 30-48 hours, depending cell growth rate. Dimethylsulfoxide (DMSO) was used as a solvent control. MTT was added to a final concentration of 0.5 mg/mL and cells were re-incubated for 4 hours. After removing the medium, 200 μL DMSO was added to dissolve formazan, followed by incubation for 10 minutes, and absorbance was measured at 490 nm by a Bio Red microplate reader. All assays were performed in triplicates for each concentration. The cell viability rate was calculated as the relative percentage of MTT absorption as follows: % cell viability=(mean experimental absorbance/mean control absorbance)×100.
(§3) Table 8 below lists activity of CBB3001 (compound 10) in Sox2-negative (ES-2) and Sox2-expressing (PA-1 and T47D) cancer cells determined in a cell-based assay as described herein (see also FIG. 3A-C).

BT-549 cells = assay: Cell growth/viability (MTT, microscopy); type: cell-based, human; conditions: BT549 cells, 50 μM, 30 hours
Description: as §1, §2

HS38.T cells = assay: Cell growth/viability (MTT, microscopy); type: cell-based, human; conditions: 50 μM, 30 hours
Description: as §1, §2

IGROV-1 cells = assay: Cell growth/viability (MTT, microscopy); type: cell-based, human; conditions: 50 μM, 30 hours
Description: as §1, §2

MCF7 cells = assay: Cell growth/viability (MTT, microscopy); type: cell-based, human; conditions: 50 μM, 30 hours
Description: as §1, §2

SK-BR-3 cells = assay: Cell growth/viability (MTT, microscopy); type: cell-based, human; conditions: 50 μM, 30 hours
Description: as §1, §2

SKOV-3 cells = assay: Cell growth/viability (MTT, microscopy); type: cell-based, human; conditions: 50 μM, 30 hours
Description: as §1, §2

ES-2 cells = assay: Cell growth/viability (MTT, microscopy); type: cell-based, human
Description: as §1
as §2, with “For the MTT assay, cells were seeded onto 96-well culture plates with a density of 2000-5000 cells/well, and incubated with CBB1003 or CBB1007 at various concentrations from 1 to 100 μM for 30-48 hours, depending cell growth rate.” left out
as §3

G401 cells = assay: Cell growth/viability (MTT, microscopy); type: cell-based, human; conditions: 50 μM, 30 hours
Description: as §1
(§4) Alternatively, cell viability assays were conducted as previously described (Wang, J., et al. (2011) Cancer Research 71, 7238-7249). […] After removing the medium, 200 μL DMSO was added to dissolve formazan, followed by incubation for 10 minutes, and absorbance was measured at 490 nm by a Bio Red microplate reader. […] The cell viability rate was calculated as the relative percentage of MTT absorption as follows: % cell viability=(mean experimental absorbance/mean control absorbance)×100.
Referring to FIG. 10B, Sox2-expressing myelogenous leukemia and rhabdoid tumor cells were also sensitive to LSD1 inhibitors. […] The statistical differences between compound treated and control groups were analyzed by One-way ANOVA. *: p<0.05 and **: p<0.01.

Sox2 = Sox2 protein level by western blotting in carcinoma cells; type: cell-based, human; design: dose or concentration left out as unconfirmed; conditions: indicated carcinoma cells, 30 hr
Description: Log-phase growing cancer cells were directly lysed in a buffer containing 0.5% SDS. Proteins in the lysates were equalized and analyzed by Western blotting using antibodies against Sox2, LSD1, H3K4Me1, H3K4Me2, Oct4, and other proteins as described previously or in the figure descriptions (Wang, J., et al. (2011) Cancer Research 71, 7238-7249). For immunohistochemical staining, rabbit monoclonal anti-LSD1 (clone C69G12, cat. #2184) and anti-Sox2 (clone D6D9, cat. #3579) antibodies were obtained from Cell Signaling. Rabbit anti-Sox2 polyclonal antibodies were raised using the purified GST-Sox2 fusion protein as the antigen.
Referring to FIG. 11A, inactivation of LSD1 by LSD1 inhibitors or siRNAs caused the downregulation of Sox2. The indicated carcinoma cells were treated with […] of the LSD1 inhibitors CBB1007 and CBB1003 for 30 hr or with 50 nM of Luc or LSD1 siRNAs for 60 hr. The protein levels of LSD1, Sox2, Lin28, CUL1, and histone H3 were analyzed by western blotting.

TP63 and KRT6A [2] = assay: TP63 and KRT6A mRNA by real-time RT-PCR in NCI-H520 cells; type: cell-based, human; conditions: 50 μM, 30 hours
Description: (§5) Total RNA was extracted using TRIZOL reagent (TaKaRa) and complementary DNA was generated according to instructions in the PrimeScript 1st strand cDNA Synthesis Kit (TaKaRa) as described previously (Wang, J., et al. (2011) Cancer Research 71, 7238-7249). The cDNAs were diluted to 1/20 and 1 μL of each diluted sample was used as template for each sample. Real-time quantitative PCR was performed on an ABI Prism 7300 sequence detection system (Applied Biosystems) using SYBR Green (TaKaRa) according to the manufacturer's instructions. PCR amplification of the housekeeping gene β-Actin was performed as a control. Experiments for specific silencing or induction of gene expression were repeated at least three times. The real-time PCR primers of human genes are described in Table 3 above.
(§6) Left panels: lung carcinoma NCI-H520, A549, and H1299 cells were either treated with 50 μM CBB1003 for 30 hours or were transfected with Luc, LSD1, or Sox2 specific siRNAs for 48 hours as indicated. […] The statistical differences between experimental and control groups were analyzed by one-way ANOVA (*: p<0.05 and **: p<0.01). Right panels: the ablation efficiency of LSD1 and Sox2 siRNAs was examined.

TP63 and KRT6A [3] = assay: TP63 and KRT6A mRNA by real-time RT-PCR in A549 cells; type: cell-based, human; conditions: 50 μM, 30 hours
Description: as §5, §6

F9 cells = assay: Cell cycle analysis by FACS in F9 cells; type: cell-based, mouse; conditions: 5 μM RA for 3 days
Description: (§7) The fluorescence-activated cell sorting (FACS) and 3-(4,5-dimethyl-2-thiazolyl)-2,5-diphenyl-2H-tetrazolium bromide (MTT) assays were conducted as described previously (Lan, R., et al. (2012) Lab. Invest. 92, 1503-1514). To synchronize PA-1 and F9 cells at the G1/S phase transition, cells were treated with 2.5 mM thymidine for 12 h, released into fresh medium for 6 h, and blocked again with 2.5 mM thymidine for an additional 12 h. The cell cycle arrest was analyzed by FACS. For differentiation, F9 and PA-1 cells were seeded in 6-well plates at a density of 1×10^4 cells per well and supplemented with 5 μM RA for 3 days. Cells were then recultured in fresh medium without RA for another 2 days, and the cell cycle was analyzed on a BD FACSCalibur cell sorter using the CellQuest program (Becton, Dickinson, Mountain View, Calif.). The percentages of cells in G1, S, and G2/M phases were determined by the use of ModFit LT software.

PA-1 cells [4] = assay: Cell cycle analysis by FACS in PA-1 cells; type: cell-based, human; conditions: 5 μM RA for 3 days
Description: as §7

OCT4, SOX2, FOXA2, BMP2 [5] = assay: Expression of pluripotency and differentiation genes in F9 cells; type: cell-based, mouse
Description: (§8) Alternatively, total RNA was extracted with the TRIzol reagent (Invitrogen), and cDNA was generated using a cloned avian myeloblastosis virus first-strand cDNA synthesis kit (TaKaRa). The mRNA levels of the target genes were quantified by realtime PCR using SYBR green (TaKaRa) in an ABI Prism 7300 real-time PCR system (Applied Biosystems). […] To synchronize PA-1 and F9 cells at the G1/S phase transition, cells were treated with 2.5 mM thymidine for 12 h, released into fresh medium for 6 h, and blocked again with 2.5 mM thymidine for an additional 12 h. The cell cycle arrest was analyzed by FACS. For differentiation, F9 and PA-1 cells were seeded in 6-well plates at a density of 1×10^4 cells per well and supplemented with 5 μM RA for 3 days. Cells were then recultured in fresh medium without RA for another 2 days, and the cell cycle was analyzed on a BD FACSCalibur cell sorter using the CellQuest program (Becton, Dickinson, Mountain View, Calif.). The percentages of cells in G1, S, and G2/M phases were determined by the use of ModFit LT software.

OCT4, SOX2, FOXA2, BMP2 [6] = assay: Expression of pluripotency and differentiation genes in PA-1 cells; type: cell-based, human
Description: as §8

LSD1 = biological target: T1, LSD1 (Homo sapiens, UniProt O60341); assay: LSD1 activity (LSD1 IC50, Table 7, FIG. 2); type: cell-based
T1 construct: LSD1 activity determined in a cell-based assay as described herein; endogenous in cells
Description: For a typical deacetylation assay, 1 μg rHDAC1 or 1 μg immunoprecipitated endogenous HDAC1-protein A complexes (from two 10-cm dishes) was incubated with 0.4 μg H4K16ac peptide in the presence or absence of 50 μM CBB1007 or 2 μM MS-275 at 30° C. for 1 h. The percentages of deacetylated products were analyzed by mass spectrometry, and the data were analyzed by GraphPad Prism (version 5) software. The reaction products were analyzed by mass spectrometry to separate the peptide substrate (H4K16ac) and the product (H4K16), as previously described (Wang, J., et al. (2011) Cancer Research 71, 7238-7249). For a typical demethylation assay, 0.4 μg H3K4me2 substrate peptide was incubated individually with 1 μg recombinant LSD1 (rLSD1) or 1 μg immunoprecipitated LSD1-protein A complex in the presence or absence of 50 μM CBB1007 or 2 μM MS-275 at 30° C. for 1 h. The reaction products were analyzed by mass spectrometry to separate the products (H3K4me1 and H3K4) from the substrate (H3K4me2), as previously described (Wang, J., et al. (2011) Cancer Research 71, 7238-7249).
Table 7 below lists specific compounds and LSD1 activity determined in a cell-based assay as described herein (see also FIGS. 2A and 2B).

T47D cells = assay: Cell growth/viability (MTT, microscopy); type: cell-based; conditions: Homo sapiens; Sox2-expressing T47D cancer cells
Description: as §1, §4, §3

**Q.** How did the cell growth (PA-1 cells [1]; PA-1 cells, 50 μM, 30 hours) turn out when `N=C(N)c1ccc(C(=O)N2CCN(C(=O)c3cc(CN4CCN(C(=N)N)CC4)cc([N+](=O)[O-])c3)CC2)cc1` [CBB1003] was run?
**A.** sensitive

**Q.** And the cell growth (BT-549 cells)?
**A.** not sensitive

**Q.** And the cell growth (HS38.T cells)?
**A.** not sensitive

**Q.** And the cell growth (IGROV-1 cells)?
**A.** sensitive

**Q.** What about the cell growth (MCF7 cells) of the same compound?
**A.** sensitive

**Q.** What about the cell growth (SK-BR-3 cells) of the same compound?
**A.** not sensitive

**Q.** What about the cell growth (SKOV-3 cells) of the same compound?
**A.** sensitive

**Q.** And the cell growth (ES-2 cells; ES-2 cells, 50 μM, 30 hours)?
**A.** not sensitive

**Q.** And the cell growth (G401 cells)?
**A.** inhibited

**Q.** And the Sox2 protein level (Sox2)?
**A.** downregulation

**Q.** What about the “mRNA levels of TP63 and KRT6A” value (TP63 and KRT6A [2]) of the same compound?
**A.** down-regulated

**Q.** What about the “mRNA levels of TP63 and KRT6A” value (TP63 and KRT6A [3]) of the same compound?
**A.** down-regulated

**Q.** What does the source list for `CC1=C(/C=C/C(C)=C/C=C/C(C)=C/C(=O)O)C(C)(C)CCC1` [RA, all-trans-retinoic acid]?
**A.** cell cycle effect (F9 cells): G1 cell cycle arrest; cell cycle effect (PA-1 cells [4]): G1 cell cycle arrest; OCT4 and SOX2 levels (OCT4, SOX2, FOXA2, BMP2 [5]): reduction; genes for differentiation, such as FOXA2 and BMP2 (OCT4, SOX2, FOXA2, BMP2 [5]): induction; OCT4 and SOX2 levels (OCT4, SOX2, FOXA2, BMP2 [6]): reduction; genes for differentiation, such as FOXA2 and BMP2 (OCT4, SOX2, FOXA2, BMP2 [6]): induction

**Q.** `CC(C)(C)OC(=O)N[C@@H]1C[C@H]1c1ccc(OC(=O)OC(C)(C)C)cc1` [Compound 10, Tert-Butyl ((1R,2S)-2-(4-((Tert-Butoxycarbonyl)Oxy)Phenyl)Cyclopropyl)Carbamate] was tested. Which IC50 (LSD1) did it give?
**A.** 21.2 µM

**Q.** What about the IC50 (PA-1 cells [1]; Homo sapiens, Sox2-expressing PA-1 cancer cells) of the same compound?
**A.** 15.2 µM

**Q.** And the IC50 (ES-2 cells; Homo sapiens, Sox2-negative ES-2 cancer cells)?
**A.** 310 µM

**Q.** And the IC50 (T47D cells)?
**A.** 22.1 µM
